Reference: patent US5952530A, “Separation processes” (Union Carbide Chemicals & Plastics Technology Corporation, priority 1998, dated 1999)
Where two headings read alike, the source gives them in different places.

Assays:
[1] = Partition of polar organic molecules between hexane and acetonitrile; assay type: physicochemical; settings: hexane/acetonitrile equal volumes; GC; polar molecule wt%: propionaldehyde 7.5, butyraldehyde 5.2, valeraldehyde 5.5, 3-pentenenitrile 4.7
Description: Solutions were prepared containing equal volumes of hexane and acetonitrile. To each solution was added a polar organic molecule identified in Table L below. The mixture was vigorously shaken, then allowed to settle and phase separate. The two phases were then analyzed for content of polar molecule by GC. In Table L, the percent by weight of polar molecule added to the hexane/acetonitrile solvent mixture together with Kpartition is given for various polar molecules.

[2] = for Kpartition: hexane:acetonitrile (1:1) solvent system, summary table; for partition coefficient Kp: hexane/acetonitrile solvent system, examples, Tables A and B
[3] = Extraction of Texanol from rhodium/Ligand E catalyst: Kpartition and selectivity; assay type: physicochemical
Description: . To this mixture was added an equal volume of acetonitrile. The mixture was shaken for 30 minutes, then allowed to settle and phase separate for several hours. The two layers were then separated, and analyzed for content. The partition coefficient Kp of the catalyst is summarized in Table J below, together with the volume ratio of the two phases defined as Vratio=volume of the catalyst containing phase after extraction/volume of the extracting solution phase after extraction, and the selectivity of the extraction defined as Selectivity=Kpartition of catalyst/Kpartition organic material being separated from catalyst.
. […] The mixture was shaken for 30 minutes, then allowed to settle and phase separate over several hours. The two phases were then separated and analyzed for content. In Table K below, partition coefficient Kp of the catalyst and Texanol as well as the volume ratio of the two phases defined as Vratio=volume of the catalyst containing phase after extraction/volume of the extracting solution phase after extraction is summarized.

[4] = DMSO, Examples 18 (B 0.8 wt%, 223 ppm Rh), 19 (C 0.8 wt%, 222 ppm Rh), 21 (E 0.6 wt%, 136 ppm Rh)
[5] = polar solvent W: acetonitrile with 1 wt% water, Examples 24 (B 0.8 wt%, 223 ppm Rh), 25 (E 0.6 wt%, 120 ppm Rh)

Q: With `CC=CCC#N` [3-pentenenitrile] as the molecule, how does the Kpartition [1] read?
A: 50

Q: Which partitioning behavior ([2]; hexane/acetonitrile, Comparative Example A, control) does the source give for `c1ccc(-c2ccccc2Op2oc3ccccc3c3ccccc3o2)c(Op2oc3ccccc3c3ccccc3o2)c1` [Ligand A, reference compound] here?
A: non-selective for the hydrocarbon phase

Q: And the Kpartition [2]?
A: 0.04

Q: What does the source list for `CC(C)(C)c1cc(-c2cc(C(C)(C)C)cc(C(C)(C)C)c2Op2oc3ccc(C(C)(C)C)cc3c3cc(C(C)(C)C)ccc3o2)c(Op2oc3ccc(C(C)(C)C)cc3c3cc(C(C)(C)C)ccc3o2)c(C(C)(C)C)c1` [Ligand B]?
A: Kpartition [4]: 124; Kpartition (acetonitrile, Ligand 0.8 wt%, rhodium 223 ppm, Example 17): 19; Kpartition (hexane/acetonitrile, Ligand 1.5 wt%, rhodium 318 ppm, Example 15): 34; Kpartition [5]: 27; Kpartition [2]: 26

Q: With `CC(C)(C)CC(C)(C)c1cc(-c2cc(C(C)(C)CC(C)(C)C)cc(C(C)(C)CC(C)(C)C)c2Op2oc3ccccc3c3ccccc3o2)c(Op2oc3ccccc3c3ccccc3o2)c(C(C)(C)CC(C)(C)C)c1` [Ligand C] as the molecule, how does the Kpartition [4] read?
A: 42

Q: And the Kpartition (Glutaronitrile, Ligand 0.8 wt%, rhodium 222 ppm, Example 20)?
A: 43

Q: And the Kpartition (hexane/acetonitrile, Ligand 0.8 wt%, rhodium 222 ppm, Example 16)?
A: 28

Q: And the “Kpartition Ligand C” value ([2]; hexane/DMSO, Example 12)?
A: 68

Q: And the “Kpartition Ligand C” value ([2]; hexane/glutaronitrile, Example 13)?
A: 20

Q: What about the Kpartition [2] of the same molecule?
A: 38

Q: With `CCCCCC(C)(C)c1cc(-c2cc(C(C)(C)CCCCC)cc(C(C)(C)CCCCC)c2Op2oc3ccccc3c3ccccc3o2)c(Op2oc3ccccc3c3ccccc3o2)c(C(C)(C)CCCCC)c1` [Ligand D] as the molecule, how does the Kpartition [2] read?
A: 116

Q: Which Kpartition [4] does the source give for `CC(C)(C)CC(C)(C)c1cc(-c2cc(C(C)(C)CC(C)(C)C)cc(C(C)(C)CC(C)(C)C)c2Op2oc3ccc(C(C)(C)C)cc3c3cc(C(C)(C)C)ccc3o2)c(Op2oc3ccc(C(C)(C)C)cc3c3cc(C(C)(C)C)ccc3o2)c(C(C)(C)CC(C)(C)C)c1` [Ligand E] here?
A: 79

Q: What about the Kpartition (DMSO, Ligand 0.6 wt%, rhodium 120 ppm, Example 23) of the same molecule?
A: 128

Q: What about the Kpartition (acetonitrile, Ligand 0.6 wt%, rhodium 120 ppm, Example 22) of the same molecule?
A: 250

Q: And the Kpartition [5]?
A: 352

Q: And the Kpartition [2]?
A: 502

Q: With `CC(C)(C)c1ccc(OP(Oc2ccccc2-c2ccccc2OP(Oc2ccc(C(C)(C)C)cc2C(C)(C)C)Oc2ccc(C(C)(C)C)cc2C(C)(C)C)Oc2ccc(C(C)(C)C)cc2C(C)(C)C)c(C(C)(C)C)c1` [Ligand F] as the molecule, how does the Kpartition [2] read?
A: 100

Q: Which Kpartition [2] does the source give for `CC1(c2cc(-c3cc(C4(C)CCCCC4)cc(C4(C)CCCCC4)c3Op3oc4ccccc4c4ccccc4o3)c(Op3oc4ccccc4c4ccccc4o3)c(C3(C)CCCCC3)c2)CCCCC1` [Ligand G] here?
A: 19

Q: For `CCC(C)(C)c1cc(-c2cc(C(C)(C)CC)cc(C(C)(C)CC)c2Op2oc3ccccc3c3ccccc3o2)c(Op2oc3ccccc3c3ccccc3o2)c(C(C)(C)CC)c1` [Ligand H], which Kpartition [2] is on record?
A: 6

Q: For `CC(C)(C)c1cc(-c2cc(C(C)(C)C)cc(C(C)(C)C)c2Op2oc3ccccc3c3ccccc3o2)c(Op2oc3ccccc3c3ccccc3o2)c(C(C)(C)C)c1` [Ligand I], which Kpartition [2] is on record?
A: 2.3

Q: For `CCCCCCCCP(CCCCCCCC)CCCCCCCC` [Ligand J], which “partition coefficient Kp” value [2] is on record?
A: > 100

Q: And the Kpartition [2]?
A: > 100

Q: What does the source list for `CCN(CC)P(Oc1c(-c2cc(OC)cc(C(C)(C)C)c2OP(N(CC)CC)N(CC)CC)cc(OC)cc1C(C)(C)C)N(CC)CC` [Ligand K]?
A: partition coefficient Kp [2]: 5; Kpartition [2]: 5

Q: With `CC(C)(C)c1ccc(Op2oc3c(C(C)(C)C)cc(C(C)(C)C)cc3c3cc(C(C)(C)C)cc(C(C)(C)C)c3o2)c(C(C)(C)C)c1` [Ligand M] as the molecule, how does the Kpartition [2] read?
A: 25

Q: Which “Kpartition Texanol” value ([3]; hexane/acetonitrile, Vratio 5.6, Example 40) does the source give for `CC(C)C(=O)OCC(C)(C)C(O)C(C)C` (stereo not shown) [Texanol] here?
A: 0.4

Q: And the “Kpartition Texanol” value ([3]; toluene vs acetonitrile containing water 4/1, Example 41)?
A: 96

Q: With `CCCC=O` [butyraldehyde] as the molecule, how does the Kpartition [1] read?
A: 3.2

Q: Which Kpartition [1] does the source give for `CCC=O` [propionaldehyde] here?
A: 9.2

Q: Which Kpartition [1] does the source give for `CCCCC=O` [valeraldehyde] here?
A: 2.0
